Assay results from US20250177530A1, “MOLECULES THAT BIND TO ENPP1 POLYPEPTIDES” (UNIVERSITY OF PITTSBURGH - OF THE COMMONWEALTH SYSTEM OF …, priority 2022, published 2025).
Non-standard residues stand in square brackets, D forms with d. Residues, ends and D or L forms follow the SMILES beside them. *: point of attachment. Dolaproine = CO[C@@H]([C@@H]1CCCN1)[C@@H](C)C(=O)O; Dil = CC[C@H](C)[C@H](NC)[C@@H](CC(=O)O)OC; X1 = C[C@@H](N*)[C@@H](O)c1ccccc1; NMeV = CN[C@H](C(=O)O)C(C)C

How the values were obtained:
Experiment in all cases: ADC cytotoxicity (Cell Titer-Glo cell viability)
Type in all cases: cell-based
293T cells = system: 293T cells
Description: (§1) The cell-killing activity of anti-ENPP1 CAR^+ T cells and BiTEs were measured by LDH-Glo cytotoxicity assay kit (Promega, Madison, WI, USA). For the cell-killing activity of anti-ENPP1 CAR^+ T cells, control T cells or CAR^+ T cells as effector cells were incubated with 293T, 293T-ENPP1, and HepG2 target cells (5×10^3 cells/well in 96-well plate) separately at indicated E:T ratio for 24 hours at 37° C. For the cell-killing activity of BiTEs, target cells (1×10^4 cells/well) were mixed with serially diluted BiTEs in 50 μL of growth medium, and […] activated T cells were added at the ET ratio 10:1 and cultured for 24 hours at 37° C. in 5% CO2 humidified atmosphere. Controls for the calculation of percentage cytotoxicity were performed according to the manufacturer's instructions. The calculation of relative % cytotoxicity as follows: relative % cytotoxicity=100×(Experimental LDH release-medium background)/(target and effector maximum LDH release control-medium background). For the cell-killing activity of ADC, 293T, 293T-ENPP1, and HepG2 cells were seeded at 2000 cells/well in 96-well white plate and incubated overnight at 37° C. in 5% CO2. Serial diluted anti-ENPP1 ADC was added and cultured for 4 days at 37° C. in 5% CO2. Images were captured under a 4×objective microscope (Olympus microscope, Westborough, MA, USA). Controls with cells only were used for calculation of percent relative cell viability. At the end of the time point, the Cell Titer-Glo Luminescent cell viability assay kit (Promega) was used to measure the cell viability. The calculation of % Relative cell viability was as follows: % Relative cell viability=100×(Experimental luminescence values-medium Background)/(Control luminescence values-medium Background). For ADCC, the ADCC reporter bioassay complete kit (Promega) was used, the experiment was performed following the manufacturer's instructions. The 293T-ENPP1 cell line was used as target cell.

293T-ENPP1 cells = system: 293T-ENPP1 cells
Description: as §1

HepG2 cells = settings: 200 nM
Description: as §1

## CC[C@H](C)[C@@H]([C@@H](CC(=O)N1CCC[C@H]1[C@H](OC)[C@@H](C)C(=O)N[C@H](C)[C@@H](O)c1ccccc1)OC)N(C)C(=O)[C@@H](NC(=O)[C@@H](NC)C(C)C)C(C)C [MMAE, monomethyl auristatin E, reference compound] (H-[NMeV]V[Dil][Dolaproine]-X1)
293T cells; 200 nM
  killing at 200 nM: non-specific killing
293T cells; concentrations below 200 nM
  killing at lower concentrations: no non-specific killing
293T-ENPP1 cells
  killing at 200 nM: non-specific killing
HepG2 cells
  killing effects of free MMAE and ADC compared: comparable
